# Biological target: T1, CFTR (Homo sapiens, UniProt P13569, DEL508-508)
# T1 construct: Primary CF airway epithelial cells were obtained from the UNC Cystic Fibrosis Tissue Procurement and Cell Culture Core; host or cells: primary CF airway epithelial cells, differentiated at the air-liquid interface
# Assay: Equivalent current assay in primary CF airway epithelial cells (NAUC, combination with 1st site corrector FDL169 or VX-809)
# Type: cell-based
# Details: 37° C., 24 h; for Nauc @ 1 μM: test compound 1 μM in combination with 1st site corrector FDL169 (3 μM); for Nauc @ 3 μM: test compound 3 μM in combination with 1st site corrector FDL169 (3 μM); for Nauc @ 10 μM: test compound 10 μM in combination with 1st site corrector FDL169 (3 μM)
# T1 sequence (P13569 with tags, fused parts or gaps DEL508-508): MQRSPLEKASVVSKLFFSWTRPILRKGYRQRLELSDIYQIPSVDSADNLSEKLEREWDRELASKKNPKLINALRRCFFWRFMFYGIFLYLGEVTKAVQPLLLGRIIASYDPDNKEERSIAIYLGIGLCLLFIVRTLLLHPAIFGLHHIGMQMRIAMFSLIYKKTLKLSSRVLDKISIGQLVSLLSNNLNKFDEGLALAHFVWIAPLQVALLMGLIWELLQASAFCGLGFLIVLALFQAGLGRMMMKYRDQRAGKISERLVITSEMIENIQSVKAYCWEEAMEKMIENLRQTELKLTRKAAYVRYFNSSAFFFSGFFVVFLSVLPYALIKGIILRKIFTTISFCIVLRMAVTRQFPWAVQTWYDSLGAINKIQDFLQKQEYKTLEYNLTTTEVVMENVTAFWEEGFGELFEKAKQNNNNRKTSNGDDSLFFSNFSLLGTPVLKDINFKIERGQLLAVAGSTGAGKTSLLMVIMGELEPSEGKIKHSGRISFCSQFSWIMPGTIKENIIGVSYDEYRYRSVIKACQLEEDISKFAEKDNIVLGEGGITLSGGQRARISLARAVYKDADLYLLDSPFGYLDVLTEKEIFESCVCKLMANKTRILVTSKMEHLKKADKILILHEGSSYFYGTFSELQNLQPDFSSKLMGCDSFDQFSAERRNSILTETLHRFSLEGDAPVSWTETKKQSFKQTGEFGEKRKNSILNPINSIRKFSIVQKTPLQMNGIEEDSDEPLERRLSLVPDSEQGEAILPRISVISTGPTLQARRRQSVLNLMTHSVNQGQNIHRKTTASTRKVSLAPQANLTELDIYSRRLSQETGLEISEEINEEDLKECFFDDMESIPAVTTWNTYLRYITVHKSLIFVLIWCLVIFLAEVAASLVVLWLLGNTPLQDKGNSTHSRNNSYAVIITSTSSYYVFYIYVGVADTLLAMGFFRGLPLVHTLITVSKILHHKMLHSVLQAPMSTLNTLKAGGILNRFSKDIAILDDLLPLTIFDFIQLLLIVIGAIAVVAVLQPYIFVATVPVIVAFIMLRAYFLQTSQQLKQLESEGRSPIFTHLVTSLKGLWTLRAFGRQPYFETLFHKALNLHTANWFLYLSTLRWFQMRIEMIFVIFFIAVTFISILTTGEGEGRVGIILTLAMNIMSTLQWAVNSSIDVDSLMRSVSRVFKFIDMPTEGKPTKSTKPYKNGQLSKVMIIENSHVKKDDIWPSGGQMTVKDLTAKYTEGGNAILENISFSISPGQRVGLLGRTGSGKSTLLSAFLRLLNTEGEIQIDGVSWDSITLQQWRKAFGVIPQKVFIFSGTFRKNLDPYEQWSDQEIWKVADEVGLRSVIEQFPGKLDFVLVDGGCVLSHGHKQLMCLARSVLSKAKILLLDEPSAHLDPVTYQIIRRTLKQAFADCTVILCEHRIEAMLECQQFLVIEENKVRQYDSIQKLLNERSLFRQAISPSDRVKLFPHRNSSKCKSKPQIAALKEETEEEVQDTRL
Compound,Nauc @ 1 μM,Nauc @ 3 μM,Nauc @ 10 μM
O=C(Nc1ccc2nccnc2c1)[C@H]1[C@H]2CC(F)(F)CN2[C@]2(C(=O)Nc3c(Cl)cc(Cl)cc32)[C@H]1C(=O)O [Example 147],+ (NAUC “+” refers to an observed NAUC <140% of positive control),+ (NAUC “+” refers to an observed NAUC <140% of positive control),
O=C(O)[C@H]1[C@@H](C(=O)N(CC2CCC2)c2cc(Cl)cc(Cl)c2)[C@H]2CC(F)(F)CN2[C@]12C(=O)Nc1c(Cl)cc(Cl)cc12 [Example 148],+++ (NAUC “+++” refers to an observed NAUC>170% of positive control),+++ (NAUC “+++” refers to an observed NAUC>170% of positive control),+++ (NAUC “+++” refers to an observed NAUC>170% of positive control)
O=C(O)[C@H]1[C@@H](C(=O)N(Cc2ccccc2)c2cc(Cl)cc(Cl)c2)[C@H]2CC(F)(F)CN2[C@]12C(=O)Nc1c(Cl)cc(Cl)cc12 [Example 149],++ (NAUC “++” refers to an observed NAUC 170-140% of positive control),+++ (NAUC “+++” refers to an observed NAUC>170% of positive control),+ (NAUC “+” refers to an observed NAUC <140% of positive control)
O=C(O)[C@H]1[C@@H](C(=O)N(CCO)c2cc(Cl)cc(Cl)c2)[C@H]2CC(F)(F)CN2[C@]12C(=O)Nc1c(Cl)cc(Cl)cc12 [Example 150],+ (NAUC “+” refers to an observed NAUC <140% of positive control),+++ (NAUC “+++” refers to an observed NAUC>170% of positive control),
CC(C)CN(C(=O)[C@H]1[C@H]2CC(F)(F)CN2[C@]2(C(=O)Nc3c(Cl)cc(Cl)cc32)[C@H]1C(=O)O)c1cc(Cl)cc(Cl)c1 [Example 151],+++ (NAUC “+++” refers to an observed NAUC>170% of positive control),+++ (NAUC “+++” refers to an observed NAUC>170% of positive control),++ (NAUC “++” refers to an observed NAUC 170-140% of positive control)
O=C(O)[C@H]1[C@@H](C(=O)N(c2cc(Cl)cc(Cl)c2)C2CCC2)[C@H]2CC(F)(F)CN2[C@]12C(=O)Nc1c(Cl)cc(Cl)cc12 [Example 152],+++ (NAUC “+++” refers to an observed NAUC>170% of positive control),+++ (NAUC “+++” refers to an observed NAUC>170% of positive control),++ (NAUC “++” refers to an observed NAUC 170-140% of positive control)
CN(C)C(=O)CN(C(=O)[C@H]1[C@H]2CC(F)(F)CN2[C@]2(C(=O)Nc3c(Cl)cc(Cl)cc32)[C@H]1C(=O)O)c1cc(Cl)cc(Cl)c1 [Example 153],+ (NAUC “+” refers to an observed NAUC <140% of positive control),+ (NAUC “+” refers to an observed NAUC <140% of positive control),
CC(C)(CN(C(=O)[C@H]1[C@H]2CC(F)(F)CN2[C@]2(C(=O)Nc3c(Cl)cc(Cl)cc32)[C@H]1C(=O)O)c1cc(Cl)cc(Cl)c1)C(F)(F)F [Example 154],+++ (NAUC “+++” refers to an observed NAUC>170% of positive control),+++ (NAUC “+++” refers to an observed NAUC>170% of positive control),+ (NAUC “+” refers to an observed NAUC <140% of positive control)
O=C(O)[C@H]1[C@@H](C(=O)N(CC2(C(F)(F)F)CC2)c2cc(Cl)cc(Cl)c2)[C@H]2CC(F)(F)CN2[C@]12C(=O)Nc1c(Cl)cc(Cl)cc12 [Example 155],+++ (NAUC “+++” refers to an observed NAUC>170% of positive control),+++ (NAUC “+++” refers to an observed NAUC>170% of positive control),+ (NAUC “+” refers to an observed NAUC <140% of positive control)
O=C(O)[C@H]1[C@@H](C(=O)N(CC2CC2)c2cccc(-c3ccccc3)c2)[C@H]2CC(F)(F)CN2[C@]12C(=O)Nc1c(Cl)cc(Cl)cc12 [Example 156],+++ (NAUC “+++” refers to an observed NAUC>170% of positive control),+++ (NAUC “+++” refers to an observed NAUC>170% of positive control),++ (NAUC “++” refers to an observed NAUC 170-140% of positive control)

# Source: patent US20230055237A1, “COMPOUNDS AND METHODS FOR THE TREATMENT OF CYSTIC FIBROSIS” (Flatley Discovery Lab, LLC, priority 2019, published 2023)
